In US10173971B2, “Picolinamides with fungicidal activity” (DOW AGROSCIENCES LLC, priority 2014, dated 2019):
Like-named read-outs stand apart in the source and are kept apart here.

What was measured:
[1] = test system: Puccinia triticina; experiment: Fungicidal activity: wheat brown rust (PUCCRT), wheat seedlings, booth sprayer to run-off or track spray; format: in vivo; conditions: Low-Volume Cereal Activity at 121.5 g/H
[2] = test system: Zymoseptoria tritici; experiment: Fungicidal activity: leaf blotch of wheat (SEPTTR), wheat seedlings, booth sprayer to run-off or track spray; format: in vivo; conditions: Low-Volume Cereal Activity at 121.5 g/H
[3] = 24 h, 1 Day Protectant, read-out: PUCCRT 1DP
[4] = 72 h, 3 Day Curative, read-out: PUCCRT 3DC
[5] = 24 h, 1 Day Protectant, read-out: SEPTTR 1DP
[6] = 72 h, 3 Day Curative, read-out: SEPTTR 3DC

Row | Compound | pest or weed control at 121.5 g/ha [1, 3] | pest or weed control at 121.5 g/ha [1, 4] | pest or weed control at 121.5 g/ha [2, 5] | pest or weed control at 121.5 g/ha [2, 6]
1 | COc1ccnc(C(=O)N[C@@H](C)C(=O)O[C@@H](C)[C@H](Cc2ccccc2)c2ccccc2)c1OCOC(C)=O [compound 195] | 80 to 100% | 80 to 100% | 80 to 100% | 80 to 100%
2 | COc1ccnc(C(=O)N[C@@H](C)C(=O)O[C@@H](C)[C@H](Cc2ccccc2)c2ccccc2)c1OC(C)=O [compound 196] | 80 to 100% | 0 to 80% | 80 to 100% | 80 to 100%
3 | CCCC[C@H](c1ccccc1)[C@H](C)OC(=O)[C@H](C)NC(=O)c1nccc(OC)c1OC(C)=O [compound 197] | 80 to 100% | 80 to 100% | 80 to 100% | 80 to 100%
4 | CCCC[C@H](c1ccccc1)[C@H](C)OC(=O)[C@H](C)NC(=O)c1nccc(OC)c1OC(=O)C(C)C [compound 198] | 0 to 80% | 0 to 80% | 80 to 100% | 80 to 100%
5 | CCCC[C@H](c1ccccc1)[C@H](C)OC(=O)[C@H](C)NC(=O)c1nccc(OC)c1OCOC(C)=O [compound 199] | 80 to 100% | 80 to 100% | 80 to 100% | 80 to 100%
6 | CCCC[C@H](c1ccccc1)[C@H](C)OC(=O)[C@H](C)NC(=O)c1nccc(OC)c1OCOC(=O)C(C)C [compound 200] | 80 to 100% | 80 to 100% | 80 to 100% | 80 to 100%
7 | COc1ccnc(C(=O)N[C@@H](C)C(=O)O[C@@H](C)[C@H](Cc2ccc(Cl)cc2)c2ccccc2)c1OC(C)=O [compound 201] | 0 to 80% | 0 to 80% | 80 to 100% | 0 to 80%
8 | COc1ccnc(C(=O)N[C@@H](C)C(=O)O[C@@H](C)[C@H](Cc2ccc(Cl)cc2)c2ccccc2)c1OC(=O)C(C)C [compound 202] | 0 to 80% | 0 to 80% | 80 to 100% | 80 to 100%
9 | COc1ccnc(C(=O)N[C@@H](C)C(=O)O[C@@H](C)[C@H](Cc2ccc(Cl)cc2)c2ccccc2)c1OCOC(C)=O [compound 203] | 80 to 100% | 0 to 80% | 80 to 100% | 80 to 100%
10 | COc1ccnc(C(=O)N[C@@H](C)C(=O)O[C@@H](C)[C@H](Cc2ccc(Cl)cc2)c2ccccc2)c1OCOC(=O)C(C)C [compound 204] | 0 to 80% | 0 to 80% | 80 to 100% | 80 to 100%
11 | COc1ccnc(C(=O)N[C@@H](C)C(=O)O[C@@H](C)[C@H](Cc2ccccc2)C(C)C)c1OC(C)=O [compound 205] | 80 to 100% | 80 to 100% | 80 to 100% | 80 to 100%
12 | COc1ccnc(C(=O)N[C@@H](C)C(=O)O[C@@H](C)[C@H](Cc2ccccc2)C(C)C)c1OCOC(C)=O [compound 206] | 80 to 100% | 80 to 100% | 80 to 100% | 80 to 100%
13 | CCCOC(C)(C)[C@@H](Cc1ccccc1)[C@H](C)OC(=O)[C@H](C)NC(=O)c1nccc(OC)c1OCOC(C)=O [compound 207] | 80 to 100% | 80 to 100% | 80 to 100% | 80 to 100%
14 | COc1ccnc(C(=O)N[C@@H](C)C(=O)O[C@@H](C)[C@@H](COc2ccccc2)Cc2ccccc2)c1OCOC(C)=O [compound 208] | 80 to 100% | 0 to 80% | 80 to 100% | 0 to 80%
15 | COc1ccnc(C(=O)N[C@@H](C)C(=O)O[C@@H](C)[C@@H](COc2ccc(Cl)cc2Cl)Cc2ccccc2)c1OCOC(C)=O [compound 209] | 0 to 80% |  | 0 to 80% | 0 to 80%
16 | COc1ccnc(C(=O)N[C@@H](C)C(=O)O[C@@H](C)[C@H](CCC(C)C)c2ccccc2)c1OC(C)=O [compound 210] | 80 to 100% | 0 to 80% | 80 to 100% | 80 to 100%
17 | COc1ccnc(C(=O)N[C@@H](C)C(=O)O[C@@H](C)[C@H](CCC(C)C)c2ccccc2)c1OC(=O)C(C)C [compound 211] | 0 to 80% |  | 80 to 100% | 80 to 100%
18 | COCCC(=O)Oc1c(OC)ccnc1C(=O)N[C@@H](C)C(=O)O[C@@H](C)[C@H](CCC(C)C)c1ccccc1 [compound 212] | 80 to 100% | 80 to 100% | 80 to 100% | 80 to 100%

Row | Compound | pest or weed control at 121.5 g/ha [1, 3] | pest or weed control at 121.5 g/ha [1, 4] | pest or weed control at 121.5 g/ha [2, 5] | pest or weed control at 121.5 g/ha [2, 6]
19 | COc1ccnc(C(=O)N[C@@H](C)C(=O)O[C@@H](C)[C@H](CCC(C)C)c2ccccc2)c1OCOC(C)=O [compound 213] | 80 to 100% | 80 to 100% | 80 to 100% | 80 to 100%
20 | COc1ccnc(C(=O)N[C@@H](C)C(=O)O[C@@H](C)[C@H](CCC(C)C)c2ccccc2)c1OCOC(=O)C(C)C [compound 214] | 80 to 100% | 80 to 100% | 80 to 100% | 80 to 100%
21 | CCOCC(=O)OCOc1c(OC)ccnc1C(=O)N[C@@H](C)C(=O)O[C@@H](C)[C@H](CCC(C)C)c1ccccc1 [compound 215] | 80 to 100% | 80 to 100% | 80 to 100% | 80 to 100%
22 | COc1ccnc(C(=O)N[C@@H](C)C(=O)O[C@@H](C)[C@H](Cc2ccc(Cl)c(Cl)c2)c2ccccc2)c1OC(C)=O [compound 216] | 0 to 80% | 0 to 80% | 80 to 100% | 0 to 80%
23 | COc1ccnc(C(=O)N[C@@H](C)C(=O)O[C@@H](C)[C@H](Cc2ccc(Cl)c(Cl)c2)c2ccccc2)c1OCOC(C)=O [compound 218] | 0 to 80% | 0 to 80% | 80 to 100% | 0 to 80%
24 | COc1ccnc(C(=O)N[C@@H](C)C(=O)O[C@@H](C)[C@H](Cc2ccc(Cl)c(Cl)c2)c2ccccc2)c1OCOC(=O)C(C)C [compound 219] | 0 to 80% | 0 to 80% | 0 to 80% | 0 to 80%
25 | COc1ccnc(C(=O)N[C@@H](C)C(=O)O[C@@H](C)[C@H](Cc2ccc(C)cc2)c2ccccc2)c1OC(C)=O [compound 220] | 0 to 80% | 0 to 80% | 80 to 100% | 80 to 100%
26 | COc1ccnc(C(=O)N[C@@H](C)C(=O)O[C@@H](C)[C@H](Cc2ccc(C)cc2)c2ccccc2)c1OCOC(C)=O [compound 221] | 80 to 100% | 0 to 80% | 80 to 100% | 80 to 100%
27 | COc1ccnc(C(=O)N[C@@H](C)C(=O)O[C@@H](C)[C@H](Cc2ccc(F)cc2)c2ccccc2)c1OCOC(C)=O [compound 222] | 80 to 100% |  | 80 to 100% | 80 to 100%
28 | COc1ccnc(C(=O)N[C@@H](C)C(=O)O[C@@H](C)[C@H](Cc2ccc(F)cc2)c2ccccc2)c1OCOC(=O)C(C)C [compound 223] | 80 to 100% | 0 to 80% | 80 to 100% | 80 to 100%
29 | COc1ccnc(C(=O)N[C@@H](C)C(=O)O[C@@H](C)[C@H](Cc2ccc3ccccc3c2)c2ccccc2)c1OC(C)=O [compound 224] | 0 to 80% |  | 0 to 80% | 0 to 80%
30 | COc1ccnc(C(=O)N[C@@H](C)C(=O)O[C@@H](C)[C@H](Cc2ccc3ccccc3c2)c2ccccc2)c1OCOC(C)=O [compound 225] | 0 to 80% | 0 to 80% | 0 to 80% | 0 to 80%
31 | COc1ccnc(C(=O)N[C@@H](C)C(=O)O[C@@H](C)[C@H](Cc2ccc3ccccc3c2)c2ccccc2)c1OCOC(=O)C(C)C [compound 226] | 0 to 80% |  | 0 to 80% | 0 to 80%
32 | COc1ccnc(C(=O)N[C@@H](C)C(=O)O[C@@H](C)[C@@H](COCc2ccccc2)Cc2ccccc2)c1OC(C)=O [compound 227] | 0 to 80% | 0 to 80% | 80 to 100% | 0 to 80%
33 | COc1ccnc(C(=O)N[C@@H](C)C(=O)O[C@@H](C)[C@@H](COCc2ccccc2)Cc2ccc(F)cc2)c1OC(C)=O [compound 228] | 0 to 80% | 0 to 80% | 80 to 100% | 0 to 80%
34 | COc1ccnc(C(=O)N[C@@H](C)C(=O)O[C@@H](C)[C@H](Cc2ccc(F)cc2)C(C)(C)OCc2ccccc2)c1OC(C)=O [compound 229] | 0 to 80% |  | 80 to 100% | 0 to 80%
35 | COc1ccnc(C(=O)N[C@@H](C)C(=O)O[C@@H](C)[C@H](Cc2ccccc2)C(C)(C)OCc2ccccc2)c1OC(C)=O [compound 230] | 80 to 100% | 0 to 80% | 80 to 100% | 80 to 100%
